Laboratory results: patent US20210330611A1, “THERAPY FOR NEUROLOGICAL DISEASES/DISORDERS” (priority 2020, published 2021)
Where a name gives a salt, the structure may show the parent alone. Read-outs that look alike come from different tables or passages of the source.

How the values were obtained:
[1] = system: fibrin-induced microglia activation; assay: Image-based assay of fibrin-induced microglia activation (HTS and dose response); type: cell-based, rat; conditions: for IC50 / inhibition at 10 µM: Rattus norvegicus, Microglia; for inhibition at 10 µM: primary microglia HTS, fibrin stimulation, increased cell size (>800 μm^2) as marker of activation, read-out: Fibrin % inhibition
[2] = system: LPS-induced microglia activation; assay: Image-based assay of LPS-induced microglia activation (HTS and dose response); type: cell-based, rat; conditions: Rattus norvegicus, Microglia; for inhibition at 10 µM: primary microglia HTS, LPS stimulation, increased cell size (>800 μm^2) as marker of activation, read-out: LPS % inhibition
[3] = system: fibrin- and LPS-induced microglia activation; assay: cells; type: cell-based, rat; conditions: for inhibition at 10 µM: Rattus norvegicus
in vitro [4] = conditions: rat, Cell Toxicity IC50 (uM) [cFib assay]
in vitro [5] = conditions: rat
primary rat microglia [6] = assay: Cell toxicity (dead cells, size <150 μm2) in LPS assay; conditions: for LPS % cell toxicity: primary microglia HTS, LPS stimulation, decreased size (<150 μm^2) as marker of toxicity; for IC50: read-out: Cell Toxicity IC50 (uM) [LPS assay], LPS assay
primary rat microglia [7] = assay: Cell toxicity (dead cells, size <150 μm2) in coated fibrin (cFib) assay; conditions: primary microglia HTS, fibrin stimulation; decreased size (<150 μm^2) as marker of toxicity;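 as to Fibrin % cell toxicity: share of dead cells sized under 150 µm2 at 10 µM in fibrin-stimulated microglia HTS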
[8] = 48 h, Table 1, dose response 0.001-20 μM, triplicates, primary rat microglia, 48 h, read-out: Fibrin IC50
[9] = Table 3, read-out: Fibrin IC50 (uM) (Suppl. Table 7)
[10] = dose response, fibrin-induced microglia activation, read-out: Fibrin IC50
[11] = fibrin-induced microglia activation, dose response, read-out: Fibrin IC50 (uM) (Suppl. Table 7)
[12] = 48 h, Table 1, dose response 0.001-20 μM, triplicates, primary rat microglia, 48 h, read-out: LPS IC50
[13] = LPS-induced microglia activation, dose response, read-out: LPS IC50 (uM) (Suppl. Table 7)
[14] = Table 3, read-out: LPS IC50 (uM) (Suppl. Table 7)
[15] = dose response, LPS-induced microglia activation, read-out: LPS IC50
[16] = HTS of 1907 compounds, quadrant by fibrin and LPS inhibition
[17] = Microglia, Table 3, read-out: Cherry-picked Hit (Suppl. Table 7)
[18] = Microglia, HTS hit classification, read-out: Hit
[19] = quadrant by fibrin and LPS inhibition in HTS of 1907 compounds
[20] = hit classification in microglia HTS, read-out: Cherry-picked Hit (Suppl. Table 7)
[21] = Table 6, read-out: Fibrin IC50 (uM) (Suppl. Table 7)
[22] = Table 6, read-out: LPS IC50 (uM) (Suppl. Table 7)

SMILES	Fibrin Selectivity [1]	Fibrin Selectivity (LOG10) [1]	IC50 [1, 8] [µM]	IC50 [1, 9] [µM]	IC50 [1, 10] [µM]	IC50 [1, 11] [µM]	inhibition at 10 µM [1] [%]	IC50 [2, 12] [µM]	inhibition at 10 µM ([2]; 48 h) [%]	IC50 [2, 13] [µM]	IC50 [2, 15] [µM]	Quadrant (FIG. 5b) [3, 16]	inhibition at 10 µM [3, 18] [%]	Quadrant (FIG. 5b) ([3]; Table 1, screen at 10 μM)	Quadrant (FIG. 5b) [3, 19]	IC50 (in vitro [4]; cFib assay) [µM]	IC50 (in vitro [5]) [µM]	LPS % cell toxicity (primary rat microglia [6]) [%]	Fibrin % cell toxicity (primary rat microglia [7]) [%]	inhibition at 10 µM [3, 20] [%]	further results
CC(C)c1nc(N(C)S(C)(=O)=O)nc(-c2ccc(F)cc2)c1/C=C/[C@@H](O)C[C@@H](O)CC(=O)O [Rosuvastatin, reference compound]	12	1.09	0.3	0.3	0.3	0.3	93	3	95	3	3	Q2	> 50	Q2	Q2	20	> 20	4	2		IC50 [2, 14]: 3 µM; inhibition at 10 µM [3, 17]: > 50%; Quadrant (FIG. 5b) ([3]; Table 3, screen at 10 μM): Q2; IC50 (in vitro [4]; Table 3): 20 µM; IC50 (primary rat microglia [6]): > 20 µM
C=N[C@@H](C(=O)N[C@@H]1C(=O)N2[C@@H]1SC(C)(C)[C@@H]2C(=O)O)c1ccccc1 [Metampicillin sodium, reference compound]			20		20	20	68	> 20	35	> 20	> 20	Q3	> 50	Q3	Q3	> 20	> 20	0	1	> 50	
CCCC(=O)O[C@]1(C(=O)CO)CC[C@H]2[C@@H]3CCC4=CC(=O)CC[C@]4(C)[C@H]3[C@@H](O)C[C@@]21C [Hydrocortisone butyrate, reference compound]	89	1.95	0.02	0.02	0.02	0.02	108	2	78	2	2	Q2	> 50	Q2	Q2	> 20	> 20	2	2		IC50 [1, 21]: 0.02 µM; IC50 ([1]; Table 7, read-out: fib_IC50): 0.071 µM; IC50 [2, 14]: 2 µM; IC50 [2, 22]: 2 µM; IC50 ([2]; Table 7, read-out: LPS_IC50): 0.005 µM; inhibition at 10 µM [3, 17]: > 50%; Quadrant (FIG. 5b) ([3]; Table 2, screen at 10 μM): Q2; Quadrant (FIG. 5b) ([3]; Table 3, screen at 10 μM): Q2; Activity ([3]; Table 7, fib = fibrin, LPS, tox = toxicity): fib/LPS; Quadrant (FIG. 5b) ([3]; microglia HTS, Table 6): Q2; IC50 (in vitro [4]; Table 3): > 20 µM; IC50 (in vitro [4]; cFib assay, Table 6): > 20 µM; IC50 (primary rat microglia [6]): > 20 µM; IC50 (primary rat microglia [6]; Table 6): > 20 µM
CCOC(=O)[N-]c1cn(N2CCOCC2)n[o+]1 [Molsidomine, reference compound]			> 20		> 20	> 20	103	> 20	124	> 20	> 20	Q2	> 50	Q2	Q2	> 20	> 20	5	2	> 50	
CC(NCCc1ccc(O)cc1)C(O)c1ccc(O)cc1 (stereo not shown) [Ritodrine hydrochloride, reference compound]	33	1.51	0.6	0.6	0.6	0.6	51	> 20	36	> 20	> 20	Q3	> 50	Q3	Q3	> 20	> 20	1	1		IC50 [1, 21]: 0.6 µM; Fibrin Selectivity (LOG10) ([1]; fibrin vs LPS, LOG10, Table 6): 1.51; Fibrin Selectivity ([1]; fibrin vs LPS, Table 6): 33; IC50 [2, 14]: > 20 µM; IC50 [2, 22]: > 20 µM; inhibition at 10 µM [3, 17]: > 50%; Quadrant (FIG. 5b) ([3]; Table 3, screen at 10 μM): Q3; Quadrant (FIG. 5b) ([3]; microglia HTS, Table 6): Q3; IC50 (in vitro [4]; Table 3): > 20 µM; IC50 (in vitro [4]; cFib assay, Table 6): > 20 µM; IC50 (primary rat microglia [6]): > 20 µM; IC50 (primary rat microglia [6]; Table 6): > 20 µM
COC(=O)Nc1nc2ccc(Sc3ccccc3)cc2[nH]1 [Fenbendazole, reference compound]			3		3	3	75	4	10	4	4	Q3	> 50	Q3	Q3	> 20	> 20	1	1	> 50	
Nc1ccc(S(=O)(=O)Nc2cnc3ccccc3n2)cc1 [Sulfaquinoxaline sodium, reference compound]			> 20		> 20	> 20	106	> 20	104	> 20	> 20	Q2	> 50	Q2	Q2	> 20	> 20	3	3	> 50	
c1ccc2c(c1)OCC(C1=NCCN1)O2 (stereo not shown) [Idazoxan hydrochloride, reference compound]	5	0.69	0.4	0.4	0.4	0.4	70	2	14	2	2	Q3	> 50	Q3	Q3	> 20	> 20	0	2		IC50 [2, 14]: 2 µM; inhibition at 10 µM [3, 17]: > 50%; Quadrant (FIG. 5b) ([3]; Table 3, screen at 10 μM): Q3; IC50 (in vitro [4]; Table 3): > 20 µM; IC50 (primary rat microglia [6]): > 20 µM
CCCCC1=NC2(CCCC2)C(=O)N1Cc1ccc(-c2ccccc2-c2nnn[nH]2)cc1 [Irbesartan, reference compound]			> 20		> 20	> 20	66	> 20	31	> 20	> 20	Q3	> 50	Q3	Q3	> 20	> 20	1	2	> 50	
O=C(OOC(=O)c1ccccc1)c1ccccc1 [Benzoyl peroxide, reference compound]			20		20	20	75	> 20	82	> 20	> 20	Q2	> 50	Q2	Q2	> 20	> 20	2	1	> 50	
